Here are results for 40 compounds from US20180237399A1, “COMPOUNDS HAVING AGONISTIC EFFECT AGAINST GPR84, PREPARATION METHOD FOR COMPOUNDS AND USE OF COMPOUNDS” (SHANGHAI INSTITUTE OF MATERIA MEDICA, CHINESE ACADEMY OF …, priority 2015, published 2018).

The target in one experiment is T1, GPR84 (Homo sapiens, UniProt Q9NQS5).
Experiment: not given
Conditions: CHO-GPR84 cells, cAMP assay; read-out: potencies (GPR84 agonists); cited from earlier work. For orientation: Cyclic AMP is a second messenger, typically raised through Gs and lowered through Gi signalling.
Target sequence in this assay (Q9NQS5 whole entry, species assumed): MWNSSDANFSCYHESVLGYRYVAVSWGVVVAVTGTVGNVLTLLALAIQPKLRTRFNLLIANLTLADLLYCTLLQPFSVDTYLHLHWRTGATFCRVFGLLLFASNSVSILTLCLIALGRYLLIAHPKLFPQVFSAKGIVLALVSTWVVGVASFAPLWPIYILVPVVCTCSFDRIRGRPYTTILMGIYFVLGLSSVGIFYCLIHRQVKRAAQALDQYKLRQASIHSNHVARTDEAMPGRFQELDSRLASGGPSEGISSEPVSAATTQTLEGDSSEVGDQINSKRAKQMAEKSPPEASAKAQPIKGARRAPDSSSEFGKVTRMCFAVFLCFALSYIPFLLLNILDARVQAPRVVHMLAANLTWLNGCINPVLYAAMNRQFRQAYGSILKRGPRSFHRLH
Turning to `CCCCCCCCCCCC(=O)O` [lauric acid], the EC50 was 9000 nM.

Another experiment has as its target T1, GPR84.
Experiment: not given
Conditions: in words; cited from earlier work.
Target sequence in this assay (Q9NQS5 whole entry, species assumed): as above
On to `CCCCCCCCC(O)C(=O)O` (stereo not shown) [2-OH—C10], for which the GPR84 agonist activities entry is listed as “some GPR84 agonist activities”.
In the case of `CCCCCCCCCCC(O)C(=O)O` (stereo not shown) [2-OH—C12], the GPR84 agonist activities entry is “some GPR84 agonist activities”.
As to `CCCCCCCC(O)CC(=O)O` (stereo not shown) [3-OH—C10], the GPR84 agonist activities entry is recorded as “some GPR84 agonist activities”.
Turning to `CCCCCCCCCC(O)CC(=O)O` (stereo not shown) [3-OH—C12], the GPR84 agonist activities entry is “some GPR84 agonist activities”.

The target of the next experiment is T1, GPR84. Description: Detection of cytoplasmic calcium ion concentration with Fluo-4 fluorescent dye tracer assay (GPR84 agonist activity). The experiment is classed as cell-based. On the set-up: expressed in transfected cells; host or cells: HEK293. Conditions: HEK293 cell line transfected with GPR84 and G16; Fluo-4 calcium fluorescence. As to the method: Detection of Cytoplasmic Calcium Ion Concentration with Fluo-4 Fluorescent Dye Tracer Assay
The GPR84 agonist activity of the compounds of the invention was tested.
The human GPR84 cell line was obtained by transfecting a plasmid encoding the GPR84 and G16 proteins in the HEK293 cell line. The fluorescent dye Fluo-4 AM was purchased from Invitrogen.
Intracellular Ca^2+ ion is a very important second messenger of G protein-coupled receptor signaling pathway. […] Fluo-4 is a Ca^2+ ion-specific fluorescent probe that binds quantitatively to Ca^2+ ions and emits fluorescence. Therefore, fluorescence assay was used to detect the agonistic activity of compounds in 96-well or 384-well flat bottom microplates. The GPR84 cells were incubated with the Fluo-4 fluorescent dye and added with different concentrations of compounds for stimulation. The changes in the intracellular calcium concentration were detected by the fluorescence intensity of dyes.
• 1. […] The pH of the solution was adjusted to 7.4 with hydrochloric acid or NaOH. The solution was filtered, and stored at 4° C. for one month. • 2. Preparation of Ca^2+ buffer: Firstly, a 560 mM D-glucose (100×) stock solution and a 250 mM Sulfinpyrazone (1000×) stock solution were prepared. Then, to 100 mL of HBSS, was added BSA (0.5 g), 560 mM D-glucose stock solution (1 mL) and 250 mM Sulfinpyrazone (100 μL). […] The Ca^2+ buffer was mixed and used as freshly prepared. • 3. Preparation of dyes solution: Firstly, a stock solution of 3% Cremophor EL (100×) in PBS and a stock solution of 2 mM Fluo-4 (1000×) in DMSO was prepared. Secondly, one milliliter of dye solution was prepared by mixing 1 μL of 2 mM Fluo-4 AM with 10 μL of 3% Cremophor EL and diluting with 1 mL of Ca^2+ buffer and mixed. • 4. The GPR84 cells were cultured in a 96-well plate at a starting density of 4×10^4 cells. The cells were continually cultured for more than 24 hours so that the cell density was 80-90% for detection. • 5. The culture fluid was removed from the cells to be tested. The cells were added freshly prepared dyes and incubated in a 37-degree incubator for 40 minutes to 50 minutes. • 6. Preparation of […] solution: Compounds are dissolved and diluted to 3-fold the final working concentration with freshly prepared Ca^2+ buffer. If compounds are dissolved in DMSO, the final DMSO concentration should not exceed 1%. • 7. After the incubation completed, the dye was removed. The cells were washed with Ca^2+ buffer and then incubated with an additional 50 μL of Ca^2+ buffer for 5 to 10 minutes. • 8. The cells were stimulated with 25 μL/well of Ca^2′ buffer containing different concentrations of the compound. The plate was read by using the FlexStation III Multi-Mode Microplate Reader. The changes in the intracellular calcium concentration were detected by the fluorescence intensity of dyes.
Target sequence in this assay (Q9NQS5 whole entry): as the sequence (Q9NQS5 whole entry, species assumed) above
On to `CCCCCc1nc(O)cc(O)n1` [LY182], for which the EC50 was found to be 3670 nM.
The same measure, in the same setting: to `CC(C)CCCc1nc(O)cc(O)n1` [LY196b] belongs 2100 nM; to `CCCCCCCc1cc(O)cc(O)n1` [LY209], 1.25 nM.
Still for that read-out and setting: as for `CCCCCCCc1nc(O)cc(O)n1` [LY210-b], the figure is 12.7 nM; as for `C#CCCCSc1nc(O)cc(O)n1` [LY210], 21600 nM.
The same measure, in the same setting: as for `Oc1cc(O)nc(SCC2CCC2)n1` [LY212], the figure is 43400 nM; as for `CCCCCSc1nc(O)cc(O)n1` [LY214-5], 2480 nM; as for `CCCCCCCCc1cc(O)cc(O)n1` [LY223], 1.34 nM.
Take `CCC#CCCSc1nc(O)cc(O)n1` [LY224-a]: the EC50 was determined as 653 nM.
Consider `CCCCCCCCc1nc(O)cc(O)n1` [LY224-b], for which the EC50 was determined as 11.4 nM.
The same measure, in the same setting: as for `CCCCCCCCc1cc(=O)[nH]c(=O)[nH]1` [LY224-c], the figure is 811 nM; as for `CCCCCCCCc1nc(O)nc(O)n1` [LY225-b], 1020 nM.
Regarding `CC/C=C\CCSc1nc(O)cc(O)n1` [LY226], the EC50 came out at 924 nM.
For `CC(C)CCCSc1nc(O)cc(O)n1` [LY228-6b], the EC50 worked out at 641 nM.
Regarding `CCCCCCCCCc1cc(O)cc(O)c1` [LY236], the EC50 came to 435 nM.
As for `CCCCCCCC(C)c1nc(O)cc(O)n1` (stereo not shown) [LY238-c], the EC50 is 299 nM.
On to `CCCCCCCCCc1cc(O)cc(=O)o1` [LY238-d], for which the EC50 amounted to 3.51 nM.
Take `CCCCCCCCCc1nc(O)cc(O)n1` [LY238]: the EC50 is 48.7 nM.
For the compound `CCCCCCCCNc1nc(O)cc(O)n1` [LY239], the EC50 turned out to be 6.14 nM.
Consider `CCCCCCCCc1cc(=O)[nH]c(=S)[nH]1` [LY240], for which the EC50 is 340 nM.
As for `CCCCCCCSc1nc(O)cc(O)n1` [LY242-7], the EC50 was determined as 231 nM.
For the compound `CCCCc1ccc(-c2cc(O)cc(O)n2)cc1` [LY243], the EC50 turned out to be 6.1 nM.
Still for that read-out and setting: to `CCc1ccc(CCc2nc(O)cc(O)n2)cc1` [LY244] belongs 88.1 nM.
With `Oc1cc(O)nc(SCCc2ccccc2)n1` [LY248], the EC50 stood at 3860 nM.
As to `CCCCCCCCSc1nc(O)cc(O)n1` [LY256-8], the EC50 is 264 nM.
Consider `Oc1cc(O)nc(SCCCc2ccccc2)n1` [LY262-a], for which the EC50 was found to be 573 nM.
Still for that read-out and setting: as for `CCc1ccc(CSc2nc(O)cc(O)n2)cc1` [LY262-b], the figure is 271 nM; as for `O=c1cc(O)nc(SCCc2ccc(F)cc2)[nH]1` [LY266-a], 2940 nM; as for `Oc1cc(O)nc(SCCc2ccccc2F)n1` [LY266-b], 1990 nM.
The same measure, in the same setting: to `Oc1cc(O)nc(SCCc2cccc(F)c2)n1` [LY266-c] belongs 2590 nM; to `Oc1cc(O)nc(SCCCCc2ccccc2)n1` [LY276], 435 nM.
In the case of `Oc1cc(O)nc(SCCCCCc2ccccc2)n1` [LY290-a], the EC50 was 1080 nM.
Consider `CCCCCCCCCCCCSc1nc(O)cc(O)n1` [LY312-12], for which the EC50 was determined as 1160 nM.
With `CCCCCCCCCCCCCCSc1nc(O)cc(O)n1` [LY340-14], the EC50 amounted to 25700 nM.
For `CCCCCCCCCCCCCCCCSc1nc(O)cc(O)n1` [LY368-16], the EC50 was 11300 nM.
